Experimental data published in patent US20220089592A1, “IMIDAZO[1,2-A]PYRIDINYL DERIVATIVES AS IRAK4 INHIBITORS” (priority 2019, published 2022).

Target: T1, IRAK4 (Homo sapiens, UniProt Q9NWZ3)
T1 sequence (Q9NWZ3 1-460): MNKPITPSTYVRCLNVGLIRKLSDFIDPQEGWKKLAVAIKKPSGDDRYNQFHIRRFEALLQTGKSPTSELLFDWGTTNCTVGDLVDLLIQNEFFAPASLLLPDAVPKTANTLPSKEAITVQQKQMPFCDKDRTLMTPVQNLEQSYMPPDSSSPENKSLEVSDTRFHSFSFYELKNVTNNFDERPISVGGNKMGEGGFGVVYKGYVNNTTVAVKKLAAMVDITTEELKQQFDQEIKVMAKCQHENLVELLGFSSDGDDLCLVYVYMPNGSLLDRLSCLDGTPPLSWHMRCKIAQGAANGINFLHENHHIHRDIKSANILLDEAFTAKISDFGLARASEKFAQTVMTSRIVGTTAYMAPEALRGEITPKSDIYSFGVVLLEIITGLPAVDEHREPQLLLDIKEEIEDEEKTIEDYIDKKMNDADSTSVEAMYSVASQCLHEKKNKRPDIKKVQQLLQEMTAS
Assay: 2-hour 1 mM ATP IRAK4 Biochemical assay (as above, but with 100 pM IRAK4 and 1 mM ATP)
Settings: IRAK4 MSD BIOCHEMICAL (1 mM ATP) IC50 (μM), 100 pM IRAK4, 2 hours
Outline: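 MSD electrochemiluminescence read-out: biotinylated peptide product bound to streptavidin plates, probed with anti-P-Thr rabbit antibody and Sulfo-Tag goat anti-rabbit. Kinase reaction used 1 mM ATP and 100 pM IRAK4 over 2 hours before EDTA quench.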

Which IC50 does the source give for `CC12CC(c3cn4cc(NC(=O)c5cccc6c5OCC6)cc(OC(F)F)c4n3)(CO1)C2` [Example 421, N-(8-(difluoromethoxy)-2-(1-methyl-2-oxabicyclo[2.1.1]hexan-4-yl)imidazo[1,2-a]pyridin-6-yl)-2,3-dihydrobenzofuran-7-carboxamide 2,2,2-trifluoroacetate] here?
The IC50 was 0.018 µM.

How did the IC50 turn out when `CCOc1cc2nc(C3CN(CC(F)(F)F)C3)cn2cc1NC(=O)c1cccc(C(F)F)n1` [Example 77, 6-(difluoromethyl)-N-(7-ethoxy-2-(1-(2,2,2-trifluoroethyl)azetidin-3-yl)imidazo[1,2-a]pyridin-6-yl)picolinamide] was run?
The IC50 was 0.001 µM.

`COc1ccccc1C(=O)Nc1cn2cc(C34CCC(C)(C3)OC4)nc2c(OC)n1` (stereo not drawn) [Example 465, 2-methoxy-N-(8-methoxy-2-(1-methyl-2-oxabicyclo[2.2.1]heptan-4-yl)imidazo[1,2-a]pyrazin-6-yl)benzamide 2,2,2-trifluoroacetate] was tested. Which IC50 did it give?
Its IC50 is 0.037 µM.

Which IC50 does the source give for `CCOc1cc(NC(=O)c2cccc(C(F)F)n2)cn2cc(C3CCCOC3)nc12` (single isomer, unassigned) [Example 286, 6-(difluoromethyl)-N-(8-ethoxy-2-(tetrahydro-2H-pyran-3-yl)imidazo[1,2-a]pyridin-6-yl)picolinamide] here?
Its IC50 is 0.005 µM.

How did the IC50 turn out when `Cn1ccc(C(=O)Nc2cn3cc(C45COC(C)(C4)C5)nc3cc2C(F)F)n1` [Example 390, N-(7-(difluoromethyl)-2-(1-methyl-2-oxabicyclo[2.1.1]hexan-4-yl)imidazo[1,2-a]pyridin-6-yl)-1-methyl-1H-pyrazole-3-carboxamide 2,2,2-trifluoroacetate] was run?
The IC50 was 0.072 µM.

How did the IC50 turn out when `COc1nc2nc(C3CC(OC)C3)cn2cc1NC(=O)c1cccc(C(F)F)n1` (stereo not drawn) [Example 564, 6-(difluoromethyl)-N-(7-methoxy-2-(3-methoxycyclobutyl)imidazo[1,2-a]pyrimidin-6-yl)picolinamide] was run?
The IC50 was 0.032 µM.

How did the IC50 turn out when `COc1c(F)cccc1C(=O)Nc1cn2cc(Cl)nc2cc1OC(C)C` [Example 402, N-(2-chloro-7-isopropoxyimidazo[1,2-a]pyridin-6-yl)-3-fluoro-2-methoxybenzamide 2,2,2-trifluoroacetate] was run?
The IC50 was 0.157 µM.

For `CCOc1cc2nc(C3CN(CC(F)F)C3)cn2cc1NC(=O)c1cccc(C(F)F)n1` [Example 78, N-(2-(1-(2,2-difluoroethyl)azetidin-3-yl)-7-ethoxyimidazo[1,2-a]pyridin-6-yl)-6-(difluoromethyl)picolinamide], which IC50 is on record?
The IC50 was 0.001 µM.

How did the IC50 turn out when `COc1nc2nc(C3C4COCC43)cn2cc1NC(=O)c1cccc(C(F)F)n1` (stereo not drawn) [Example 568, N-(2-(3-oxabicyclo[3.1.0]hexan-6-yl)-7-methoxyimidazo[1,2-a]pyrimidin-6-yl)-6-(difluoromethyl)picolinamide 2,2,2-trifluoroacetate] was run?
The IC50 was 0.009 µM.

For `CC(C)Oc1cc2nc(C3CCOCC3)c(F)n2cc1NC(=O)c1cccc(C(F)F)n1` [Example 352, 6-(difluoromethyl)-N-(3-fluoro-7-isopropoxy-2-(tetrahydro-2H-pyran-4-yl)imidazo[1,2-a]pyridin-6-yl)picolinamide], which IC50 is on record?
Its IC50 is 0.001 µM.

`CC(C)Oc1cc2nc(-c3cn(C)nc3C(F)F)cn2cc1NC(=O)c1cccc(C(F)F)n1` [Example 264, 6-(difluoromethyl)-N-(2-(3-(difluoromethyl)-1-methyl-1H-pyrazol-4-yl)-7-isopropoxyimidazo[1,2-a]pyridin-6-yl)picolinamide] was tested. Which IC50 did it give?
Its IC50 is 0.002 µM.

For `Cc1cccc(C(=O)Nc2cn3cc(C45COC(C)(C4)C5)nc3c(OC(C)C)n2)c1F` [Example 478, 2-fluoro-N-(8-isopropoxy-2-(1-methyl-2-oxabicyclo[2.1.1]hexan-4-yl)imidazo[1,2-a]pyrazin-6-yl)-3-methylbenzamide 2,2,2-trifluoroacetate], which IC50 is on record?
Its IC50 is 0.012 µM.

How did the IC50 turn out when `CC(C)Oc1c(NC(=O)c2cccc(OCC(F)F)n2)cn2cc(C34COC(C)(C3)C4)nc2c1F` [Example 429, 6-(2,2-difluoroethoxy)-N-(8-fluoro-7-isopropoxy-2-(1-methyl-2-oxabicyclo[2.1.1]hexan-4-yl)imidazo[1,2-a]pyridin-6-yl)picolinamide 2,2,2-trifluoroacetate] was run?
The IC50 was 0.006 µM.

With `COc1nc2nc(C34COC(C)(C3)C4)cn2cc1NC(=O)c1cccc(C(F)F)n1` [Example 567, 6-(difluoromethyl)-N-(7-methoxy-2-(1-methyl-2-oxabicyclo[2.1.1]hexan-4-yl)imidazo[1,2-a]pyrimidin-6-yl)picolinamide 2,2,2-trifluoroacetate] as the compound, how does the IC50 read?
The IC50 was 0.008 µM.

`COc1nc(NC(=O)c2cccc(C(F)F)n2)cn2cc(C3COCCO3)nc12` (stereo not drawn) [Example 278, N-(2-(1,4-dioxan-2-yl)-8-methoxyimidazo[1,2-a]pyrazin-6-yl)-6-(difluoromethyl)picolinamide] was tested. Which IC50 did it give?
The IC50 was 0.023 µM.

Which IC50 does the source give for `CC(C)Oc1nc2nc(C34COC(C)(C3)C4)cn2cc1NC(=O)c1cccc(OC2CC2)n1` [Example 494, 6-cyclopropoxy-N-(7-isopropoxy-2-(1-methyl-2-oxabicyclo[2.1.1]hexan-4-yl)imidazo[1,2-a]pyrimidin-6-yl)picolinamide] here?
The IC50 was 0.006 µM.

Which IC50 does the source give for `CC12CC(c3cn4cc(NC(=O)c5cccc(C(F)F)n5)ccc4n3)(CO1)C2` [Example 357, 6-(difluoromethyl)-N-(2-(1-methyl-2-oxabicyclo[2.1.1]hexan-4-yl)imidazo[1,2-a]pyridin-6-yl)picolinamide] here?
The IC50 was 0.03 µM.

Which IC50 does the source give for `CCCOc1ncccc1C(=O)Nc1cn2cc(C3CCOCC3)nc2c(OC)n1` [Example 460, N-(8-methoxy-2-(tetrahydro-2H-pyran-4-yl)imidazo[1,2-a]pyrazin-6-yl)-2-propoxynicotinamide] here?
Its IC50 is 0.025 µM.

`O=C(Nc1cn2cc(C3CCOCC3)nc2cc1OCCC1CCOC1)c1cccc(C(F)F)n1` (stereo not drawn) [Example 195, 6-(difluoromethyl)-N-(2-(tetrahydro-2H-pyran-4-yl)-7-(2-(tetrahydrofuran-3-yl)ethoxy)imidazo[1,2-a]pyridin-6-yl)picolinamide] was tested. Which IC50 did it give?
Its IC50 is 0.002 µM.

`Cc1cc(NC(=O)c2cccc(C(F)F)n2)cn2cc(C34COC(C)(C3)C4)nc12` [Example 406, 6-(difluoromethyl)-N-(8-methyl-2-(1-methyl-2-oxabicyclo[2.1.1]hexan-4-yl)imidazo[1,2-a]pyridin-6-yl)picolinamide] was tested. Which IC50 did it give?
The IC50 was 0.032 µM.

For `CCOc1cc2nc(C3C4COCC43)cn2cc1NC(=O)c1coc(C2CC2)n1` (stereo not drawn) [Example 375, N-(2-(3-oxabicyclo[3.1.0]hexan-6-yl)-7-ethoxyimidazo[1,2-a]pyridin-6-yl)-2-cyclopropyloxazole-4-carboxamide], which IC50 is on record?
The IC50 was 0.004 µM.

`COc1nc(NC(=O)c2cccc3ccnn23)cn2cc(C34CCC(C)(C3)OC4)nc12` (stereo not drawn) [Example 470, N-(8-methoxy-2-(1-methyl-2-oxabicyclo[2.2.1]heptan-4-yl)imidazo[1,2-a]pyrazin-6-yl)pyrazolo[1,5-a]pyridine-7-carboxamide 2,2,2-trifluoroacetate] was tested. Which IC50 did it give?
Its IC50 is 0.006 µM.

`COc1cc(NC(=O)c2cccc(C(F)F)n2)cn2cc([C@]3(C)C[C@@H](OC)C3)nc12` [Example 271, 6-(difluoromethyl)-N-(8-methoxy-2-((1r*,3r*)-3-methoxy-1-methylcyclobutyl)imidazo[1,2-a]pyridin-6-yl)picolinamide] was tested. Which IC50 did it give?
Its IC50 is 0.016 µM.

How did the IC50 turn out when `COc1nc(NC(=O)c2ccn(C)n2)cn2cc(C34COC(C)(C3)C4)nc12` [Example 441, N-(8-methoxy-2-(1-methyl-2-oxabicyclo[2.1.1]hexan-4-yl)imidazo[1,2-a]pyrazin-6-yl)-1-methyl-1H-pyrazole-3-carboxamide] was run?
Its IC50 is 0.118 µM.
